# Reference: US20150087673A1, “METHODS FOR USING AND BIOMARKERS FOR AMPK-ACTIVATING COMPOUNDS” (RIGEL PHARMACEUTICALS, INC., priority 2013, published 2015)
# Tested on: AMPK
# Test: AMPK activation assay (enzyme-linked immunosorbent assay)
# Assay type: cell-based
# Outline: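 Read-out: immunodetected kinase activation after compound exposure, run with commercial kit reagents.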
row,EC50,Compound
1,< 500 nM,"N#Cc1ccc(CN2CCC(NC(=O)c3ccc(C(=O)N4CCC(Oc5ccncc5)CC4)cn3)CC2)cc1 [Compound 269, N-(1-(4-cyanobenzyl)piperidin-4-yl)-5-(4-(pyridin-4-yloxy)piperidine-1-carbonyl)picolinamide]"
2,1000 to 5000 nM,"N#Cc1ccc(CN2CCC(NC(=O)c3ccc(N4CCN(Cc5ccc(F)cc5)CC4)nn3)CC2)cc1 [Compound 491, N-(1-(4-cyanobenzyl)piperidin-4-yl)-6-(4-(4-fluorobenzyl)piperazin-1-yl)pyridazine-3-carboxamide]"
3,1000 to 5000 nM,"O=C(NC1CCN(Cc2ccccc2)CC1)c1ccc(C(=O)N2CCN(c3ccccc3)CC2)cn1 [Compound 97, N-(1-benzylpiperidin-4-yl)-5-(4-phenylpiperazine-1-carbonyl)picolinamide]"
4,< 500 nM,"N#Cc1ccc(OC2CCN(C(=O)c3ccc(C(=O)N[C@H]4CC[C@@H](Oc5ccc(F)cc5)CC4)cn3)CC2)cc1 [Compound 324, 6-(4-(4-cyanophenoxy)piperidine-1-carbonyl)-N-((cis)-4-(4-fluorophenoxy)cyclohexyl)nicotinamide]"
5,< 500 nM,"N#Cc1ccc(CN2CCC(NC(=O)c3ccc(C(=O)N4CCC(Oc5ccc(C#N)cc5)CC4)cn3)CC2)cc1 [Compound 135, N-(1-(4-cyanobenzyl)piperidin-4-yl)-5-(4-(4-cyanophenoxy)piperidine-1-carbonyl)picolinamide]"
6,< 500 nM,"O=C(NC1CCN(Cc2cc(F)cc(F)c2)CC1)c1ccc(C(=O)N2CCC(Oc3ccc(C(F)(F)F)cc3)CC2)cn1 [Compound 294, N-(1-(3,5-difluorobenzyl)piperidin-4-yl)-5-(4-(4-(trifluoromethyl)phenoxy)piperidine-1-carbonyl)picolinamide]"
7,1000 to 5000 nM,"CS(=O)(=O)c1ccc(N2CCC(NC(=O)c3ccc(C(=O)N4CCN(Cc5ccc(F)cc5)CC4)nc3)CC2)cc1 [Compound 421, 6-(4-(4-fluorobenzyl)piperazine-1-carbonyl)-N-(1-(4-(methylsulfonyl)phenyl)piperidin-4-yl)nicotinamide]"
8,< 500 nM,"N#Cc1ccc(CN2CCC(NC(=O)c3ccc(C(=O)N4CCN(c5ccc(C(=O)C(F)(F)F)cc5)CC4)cn3)CC2)cc1 [Compound 263, N-(1-(4-cyanobenzyl)piperidin-4-yl)-5-(4-(4-(2,2,2-trifluoroacetyl)phenyl)piperazine-1-carbonyl)picolinamide]"
9,< 500 nM,"N#Cc1ccc(CN2CCC(NC(=O)c3ccc(C(=O)N4CCC(Cc5ccccc5)CC4)cn3)CC2)cc1 [Compound 124, 5-(4-benzylpiperidine-1-carbonyl)-N-(1-(4-cyanobenzyl)piperidin-4-yl)picolinamide]"
10,< 500 nM,"COc1ccc(C(=O)C2CCN(C(=O)c3ccc(C(=O)Nc4ccc(Oc5ccc(C#N)cc5)nc4)cn3)CC2)cc1 [Compound 460, N-(6-(4-cyanophenoxy)pyridin-3-yl)-6-(4-(4-methoxybenzoyl)piperidine-1-carbonyl)nicotinamide]"
11,< 500 nM,"COc1ccc(C(=O)C2CCN(C(=O)c3ccc(C(=O)N[C@@H]4CCN(Cc5ccc(OC(C)C)cc5)C[C@H]4F)cn3)CC2)cc1 (relative stereo) [Compound 353, N-((trans)-3-fluoro-1-(4-isopropoxybenzyl)piperidin-4-yl)-6-(4-(4-methoxybenzoyl)piperidine-1-carbonyl)nicotinamide]"
12,< 500 nM,"COc1ccc(OC2CCN(C(=O)c3ccc(C(=O)N[C@H]4CC[C@H](Oc5ccc(C#N)cc5)CC4)nc3)CC2)cc1 [Compound 172, N-((trans)-4-(4-cyanophenoxy)cyclohexyl)-5-(4-(4-methoxyphenoxy)piperidine-1-carbonyl)picolinamide]"
13,< 500 nM,"COc1ccc(CN2CCC(NC(=O)c3ccc(C(=O)N4CCC(Oc5ccc(F)cc5)CC4)cn3)CC2)cc1 [Compound 161, 5-(4-(4-fluorophenoxy)piperidine-1-carbonyl)-N-(1-(4-methoxybenzyl)piperidin-4-yl)picolinamide]"
14,< 500 nM,"O=C(NC1CCN(Cc2cc(F)cc(F)c2)CC1)c1ccc(C(=O)N2CCN(Cc3ccc(F)cc3)CC2)cn1 [Compound 49, N-(1-(3,5-difluorobenzyl)piperidin-4-yl)-5-(4-(4-fluorobenzyl)piperazine-1-carbonyl)picolinamide]"
15,< 500 nM,"COc1ccc(CN2CCC(NC(=O)c3ccc(C(=O)N4CCC(Oc5ccc(S(F)(F)(F)(F)F)cc5)CC4)nc3)CC2)cc1 [Compound 495, N-(1-(4-methoxybenzyl)piperidin-4-yl)-6-(4-(4-(pentafluorosulfanyl)phenoxy)piperidine-1-carbonyl)nicotinamide]"
16,500 to 1000 nM,"O=C(Nc1ccc(OCc2ccccc2)cc1)c1ccc(C(=O)N2CCN(Cc3ccc(F)cc3)CC2)cn1 [Compound 27, N-(4-benzyloxyphenyl)-5-(4-(4-fluorobenzyl)piperazine-1-carbonyl)picolinamide]"
17,< 500 nM,"O=C(NC1CCN(Cc2ccc(OC(F)(F)F)cc2)CC1)c1ccc(C(=O)N2CCC(Oc3ccc(S(F)(F)(F)(F)F)cc3)CC2)nc1 [Compound 494, 6-(4-(4-(pentafluorosulfanyl)phenoxy)piperidine-1-carbonyl)-N-(1-(4-(trifluoromethoxy)benzyl)piperidin-4-yl)nicotinamide]"

row,EC50,Compound
1,< 500 nM,"N#Cc1ccc(CN2CCC(NC(=O)c3ccc(C(=O)N4CCN(c5ccc(S(=O)(=O)C6CC6)cc5)CC4)cn3)CC2)cc1 [Compound 256, N-(1-(4-cyanobenzyl)piperidin-4-yl)-5-(4-(4-(cyclopropylsulfonyl)phenyl)piperazine-1-carbonyl)picolinamide]"
2,> 10000 nM,"O=C(Nc1ccc(C(=O)N2CCN(Cc3ccc(F)cc3)CC2)cn1)c1ccc(-c2ccccc2)cc1 [Compound 170, N-(5-(4-(4-fluorobenzyl)piperazine-1-carbonyl)pyridin-2-yl)biphenyl-4-carboxamide]"
3,500 to 1000 nM,"N#Cc1ccc(CN2CCC(NC(=O)c3ccc(Nc4ccc(Cc5ccccc5)cc4)cn3)CC2)cc1 [Compound 108, 5-(4-benzylphenylamino)-N-(1-(4-cyanobenzyl)piperidin-4-yl)picolinamide]"
4,< 500 nM,"COc1ccc(C(=O)C2CCN(C(=O)c3ccc(C(=O)N[C@H]4CC[C@@H](Oc5ccc(C#N)cc5)CC4)nc3)CC2)cc1 [Compound 171, N-((cis)-4-(4-cyanophenoxy)cyclohexyl)-5-(4-(4-methoxybenzoyl)piperidine-1-carbonyl)picolinamide]"
5,500 to 1000 nM,"COc1ccc(-c2ccc(NC(=O)c3ccc(C(=O)N4CCN(Cc5ccc(F)cc5)CC4)cn3)cc2)cc1 [Compound 29, N-(4-(4-methoxyphenyl)phenyl)-5-(4-(4-fluorobenzyl)piperazine-1-carbonyl)picolinamide]"
6,< 500 nM,"COc1ccc(CN2CCC(NC(=O)c3ccc(C(=O)N4CCC(Oc5ccc(C(=O)C6CC6)cc5)CC4)nc3)CC2)cc1 [Compound 458, 6-(4-(4-(cyclopropanecarbonyl)phenoxy)piperidine-1-carbonyl)-N-(1-(4-methoxybenzyl)piperidin-4-yl)nicotinamide]"
7,< 500 nM,"O=C(NC1CCN(Cc2ccccc2)CC1)c1ccc(C(=O)N2CCN(Cc3ccccc3)CC2)nc1 [Compound 74, 6-(4-benzylpiperazine-1-carbonyl)-N-(1-benzylpiperidin-4-yl)nicotinamide]"
8,5000 to 10000 nM,"O=C(c1ccc(C(=O)N2CCN(Cc3ccccc3)CC2)nc1)N1CCN(Cc2ccccc2)CC1 [Compound 73, pyridine-2,5-diylbis((4-benzylpiperazin-1-yl)methanone)]"
9,< 500 nM,"O=C(N[C@H]1CC[C@@H](Oc2cc(F)cc(F)c2)CC1)c1ccc(C(=O)N2CCC(Oc3ccc(F)cc3)CC2)cn1 [Compound 299, N-((cis)-4-(3,5-difluorophenoxy)cyclohexyl)-5-(4-(4-fluorophenoxy)piperidine-1-carbonyl)picolinamide]"
10,< 500 nM,"COc1ccc(CN2CCC(NC(=O)c3ccc(C(=O)N4CCC(Oc5ccc(C#N)cc5)CC4)nc3)CC2)cc1 [Compound 319, 6-(4-(4-cyanophenoxy)piperidine-1-carbonyl)-N-(1-(4-methoxybenzyl)piperidin-4-yl) nicotinamide]"
11,< 500 nM,"CC(C)(C)OC(=O)N1CCC(NC(=O)c2ccc(C(=O)N3CCC(Oc4ccc(C#N)cc4)CC3)nc2)CC1 [Compound 333, tert-butyl 4-(6-(4-(4-cyanophenoxy)piperidine-1-carbonyl)nicotinamido) piperidine-1-carboxylate]"
12,< 500 nM,"COc1ccc(CN2CCC(NC(=O)c3ccc(C(=O)N4CCC(Oc5cccc(NC(=O)C6CC6)c5)CC4)nc3)CC2)cc1 [Compound 435, 6-(4-(3-(cyclopropanecarboxamido)phenoxy)piperidine-1-carbonyl)-N-(1-(4-methoxybenzyl)piperidin-4-yl)nicotinamide]"
13,< 500 nM,"O=C(c1ccc(-c2cccc(OCc3ccccc3)c2)nc1)N1CCN(Cc2ccc(F)cc2)CC1 [Compound 22, (6-(3-(benzyloxy)phenyl)pyridin-3-yl)(4-(4-fluorobenzyl)piperazin-1-yl)methanone]"
14,< 500 nM,"N#Cc1ccc(CN2CCC(C(=O)Nc3ccc(C(=O)N4CCC(C(=O)c5ccc(F)cc5)CC4)cn3)CC2)cc1 [Compound 175, 1-(4-cyanobenzyl)-N-(5-(4-(4-fluorobenzoyl)piperidine-1-carbonyl)pyridin-2-yl)piperidine-4-carboxamide]"
15,< 500 nM,"N#Cc1ccc(CN2CCC(NC(=O)c3ccc(C(=O)N4CCC(C(=O)c5ccc(F)c(F)c5)CC4)cn3)CC2)cc1 [Compound 281, N-(1-(4-cyanobenzyl)piperidin-4-yl)-5-(4-(3,4-difluorobenzoyl)piperidine-1-carbonyl)picolinamide]"
16,500 to 1000 nM,"N#Cc1ccc(C(=O)N2CCC(NC(=O)c3ccc(C(=O)N4CCN(Cc5ccc(F)cc5)CC4)cn3)CC2)cc1 [Compound 4, N-(1-(4-cyanobenzoyl)piperidin-4-yl)-5-(4-(4-fluorobenzyl)piperazine-1-carbonyl)picolinamide]"
17,< 500 nM,"COc1ccc(C(=O)C2CCN(C(=O)c3ccc(C(=O)N(C)C4CCN(Cc5ccc(OC(F)(F)F)cc5)CC4)cn3)CC2)cc1 [Compound 483, 6-(4-(4-methoxybenzoyl)piperidine-1-carbonyl)-N-methyl-N-(1-(4-(trifluoromethoxy)benzyl)piperidin-4-yl)nicotinamide]"
